Assay results from ChEMBL document CHEMBL5724914, “Linking interpersonal differences in gut microbiota composition and drug biotransformation activity” (2024).

Tests used:
[1] = (§1) The drug is tested on Z-019 corresponding to rat gut metagenome with ENA study accession number: PRJEB37062 and ENA sample accession number: ERS12561818 for biotransformation under anaerobic condition. The drug concentrations were measured over 9 timepoints collected between 0 and 24 hours of incubation by liquid-chromatography-coupled mass spectrometry (LC–MS); details: 2 µM
[2] = as §1, with “on WLS-098” for “on Z-019”, “to human” for “to rat”, “number: ERS12561754” for “number: ERS12561818”; details: 2 µM
[3] = as §1, with “on Z-002” for “on Z-019”, “to rabbit” for “to rat”, “number: ERS12561802” for “number: ERS12561818”; details: 2 µM
[4] = human gut metagenome, 24 h, 2 µM
[5] = as §1, with “on WLS-090” for “on Z-019”, “to human” for “to rat”, “number: ERS12561753” for “number: ERS12561818”; details: 2 µM
[6] = human gut metagenome, 24 h, 2 µM; remark: listed apart in the source
[7] = human gut metagenome, 24 h, 2 µM; remark: listed apart in the source
[8] = as §1, with “Z-027” for “Z-019”, “to” for “to rat gut”, “ERS12561826” for “ERS12561818”; details: 2 µM
[9] = as §1, with “Z-021” for “Z-019”, “to” for “to rat gut”, “ERS12561820” for “ERS12561818”; details: 2 µM
Also: call rule not given here.

Row | SMILES | Bacterial Biotransformation [1] | Bacterial Biotransformation [2] | Bacterial Biotransformation [3] | Bacterial Biotransformation [4] | Bacterial Biotransformation [5] | Bacterial Biotransformation [6] | Bacterial Biotransformation [7] | Bacterial Biotransformation [8] | Bacterial Biotransformation [9]
1 | COC1=CC(=O)C[C@@H](C)[C@]12Oc1c(Cl)c(OC)cc(OC)c1C2=O [GRISEOFULVIN] | Compound NOT metabolized | Compound NOT metabolized | Compound metabolized | Compound metabolized | Compound NOT metabolized | Compound metabolized | Compound metabolized | Compound metabolized | Compound metabolized
2 | N#Cc1ccc(C(c2ccc(C#N)cc2)n2cncn2)cc1 [LETROZOLE] | Compound NOT metabolized | Compound NOT metabolized | Compound metabolized | Compound NOT metabolized | Compound NOT metabolized | Compound NOT metabolized | Compound NOT metabolized | Compound NOT metabolized | Compound metabolized
3 | CC(Oc1c(Cl)cccc1Cl)C1=NCCN1 (stereo unspecified) [LOFEXIDINE] | Compound NOT metabolized | Compound metabolized | Compound metabolized | Compound NOT metabolized | Compound metabolized | Compound NOT metabolized | Compound NOT metabolized | Compound NOT metabolized | Compound NOT metabolized
4 | CN(C)C(=O)C(CCN1CCC(O)(c2ccc(Cl)cc2)CC1)(c1ccccc1)c1ccccc1 [LOPERAMIDE] | Compound NOT metabolized | Compound metabolized | Compound metabolized | Compound metabolized | Compound metabolized | Compound metabolized | Compound metabolized | Compound metabolized | Compound NOT metabolized
5 | CCCCc1nc(Cl)c(CO)n1Cc1ccc(-c2ccccc2-c2nn[nH]n2)cc1 [LOSARTAN] | Compound NOT metabolized | Compound metabolized | Compound NOT metabolized | Compound NOT metabolized | Compound metabolized | Compound metabolized | Compound metabolized | Compound NOT metabolized | Compound NOT metabolized
6 | COC(=O)Nc1nc2ccc(C(=O)c3ccccc3)cc2[nH]1 [MEBENDAZOLE] | Compound NOT metabolized | Compound metabolized | Compound metabolized | Compound metabolized | Compound metabolized | Compound metabolized | Compound metabolized | Compound NOT metabolized | Compound metabolized
7 | COc1ccccc1OCC(O)COC(N)=O (stereo unspecified) [METHOCARBAMOL] | Compound NOT metabolized | Compound NOT metabolized | Compound NOT metabolized | Compound NOT metabolized | Compound NOT metabolized | Compound NOT metabolized | Compound NOT metabolized | Compound NOT metabolized | Compound NOT metabolized
8 | CC[C@@H](CO)NC(=O)[C@@H]1C=C2c3cccc4c3c(cn4C)C[C@H]2N(C)C1.O=C(O)/C=C\C(=O)O [METHYSERGIDE MALEATE] | Compound NOT metabolized | Compound NOT metabolized | Compound NOT metabolized | Compound NOT metabolized | Compound NOT metabolized | Compound metabolized | Compound NOT metabolized | Compound NOT metabolized | Compound NOT metabolized
9 | CCN(CC)CCNC(=O)c1cc(Cl)c(N)cc1OC [METOCLOPRAMIDE] | Compound NOT metabolized | Compound NOT metabolized | Compound NOT metabolized | Compound NOT metabolized | Compound NOT metabolized | Compound NOT metabolized | Compound NOT metabolized | Compound NOT metabolized | Compound NOT metabolized
10 | Cc1ccccc1N1C(=O)c2cc(S(N)(=O)=O)c(Cl)cc2NC1C (stereo unspecified) [METOLAZONE] | Compound NOT metabolized | Compound metabolized | Compound NOT metabolized | Compound NOT metabolized | Compound metabolized | Compound NOT metabolized | Compound NOT metabolized | Compound NOT metabolized | Compound NOT metabolized
11 | COCCc1ccc(OCC(O)CNC(C)C)cc1.COCCc1ccc(OCC(O)CNC(C)C)cc1.O=C(O)C(O)C(O)C(=O)O (stereo unspecified) [METOPROLOL TARTRATE] | Compound NOT metabolized | Compound metabolized | Compound metabolized | Compound NOT metabolized | Compound metabolized | Compound NOT metabolized | Compound NOT metabolized | Compound NOT metabolized | Compound NOT metabolized
12 | COc1c(C)c2c(c(O)c1C/C=C(\C)CCC(=O)OCCN1CCOCC1)C(=O)OC2 [MYCOPHENOLATE MOFETIL] | Compound NOT metabolized | Compound metabolized | Compound metabolized | Compound metabolized | Compound metabolized | Compound metabolized | Compound metabolized | Compound metabolized | Compound metabolized
13 | CCN(CC)CCOC(=O)C(Cc1cccc2ccccc12)CC1CCCO1.O=C(O)C(=O)O (stereo unspecified) [NAFRONYL OXALATE] | Compound NOT metabolized | Compound metabolized | Compound metabolized | Compound metabolized | Compound metabolized | Compound metabolized | Compound metabolized | Compound NOT metabolized | Compound metabolized
14 | C=CCN1CC[C@]23c4c5ccc(O)c4O[C@H]2C(=O)CC[C@@]3(O)[C@H]1C5 [NALOXONE] | Compound NOT metabolized | Compound NOT metabolized | Compound NOT metabolized | Compound NOT metabolized | Compound NOT metabolized | Compound NOT metabolized | Compound NOT metabolized | Compound NOT metabolized | Compound NOT metabolized
15 | CCc1nn(CCCN2CCN(c3cccc(Cl)c3)CC2)c(=O)n1CCOc1ccccc1 [NEFAZODONE] | Compound NOT metabolized | Compound metabolized | Compound NOT metabolized | Compound metabolized | Compound metabolized | Compound metabolized | Compound NOT metabolized | Compound NOT metabolized | Compound NOT metabolized
16 | CN1CCOC(c2ccccc2)c2ccccc2C1 (stereo unspecified) [NEFOPAM] | Compound NOT metabolized | Compound metabolized | Compound NOT metabolized | Compound NOT metabolized | Compound metabolized | Compound NOT metabolized | Compound metabolized | Compound NOT metabolized | Compound NOT metabolized
17 | Cc1ccnc2c1NC(=O)c1cccnc1N2C1CC1 [NEVIRAPINE] | Compound NOT metabolized | Compound metabolized | Compound metabolized | Compound NOT metabolized | Compound metabolized | Compound metabolized | Compound NOT metabolized | Compound NOT metabolized | Compound NOT metabolized
18 | CO[C@]12C[C@@H](COC(=O)c3cncc(Br)c3)CN(C)[C@@H]1Cc1cn(C)c3cccc2c13 [NICERGOLINE] | Compound NOT metabolized | Compound metabolized | Compound metabolized | Compound NOT metabolized | Compound metabolized | Compound NOT metabolized | Compound NOT metabolized | Compound metabolized | Compound metabolized
19 | COc1ccc2c(c1OC)C(=O)O[C@@H]2[C@H]1c2c(cc3c(c2OC)OCO3)CCN1C [NOSCAPINE] | Compound NOT metabolized | Compound metabolized | Compound metabolized | Compound NOT metabolized | Compound metabolized | Compound metabolized | Compound NOT metabolized | Compound NOT metabolized | Compound NOT metabolized
